PubChem BioAssay (NCI)
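At the GI50, growth is halved. TGI marks complete inhibition of growth.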

Columns and labels:
Assay in all cases: NCI tumour cell line growth inhibition, 384-well format
HCC-2998 colon = test system: HCC-2998 colon
786-0 renal = test system: 786-0 renal
LOX IMVI melanoma = test system: LOX IMVI melanoma
IGROV1 ovarian = test system: IGROV1 ovarian
SF-295 CNS = test system: SF-295 CNS
HL-60(TB) leukemia = test system: HL-60(TB) leukemia
A549 NSCLC = test system: A549 NSCLC
U251 glioblastoma = test system: U251 glioblastoma
SNB-19 CNS = test system: SNB-19 CNS
M14 melanoma = test system: M14 melanoma
HT29 colon = test system: HT29 colon
SF-268 CNS = test system: SF-268 CNS
T-47D breast = test system: T-47D breast
PC-3 prostate = test system: PC-3 prostate
SN12C renal = test system: SN12C renal
MALME-3M melanoma = test system: MALME-3M melanoma
RPMI-8226 leukemia = test system: RPMI-8226 leukemia
SF-539 CNS = test system: SF-539 CNS
A498 renal = test system: A498 renal
SK-MEL-5 melanoma = test system: SK-MEL-5 melanoma
NCI-H226 lung = test system: NCI-H226 lung
KM12 colon = test system: KM12 colon
OVCAR-8 ovarian = test system: OVCAR-8 ovarian
OVCAR-5 ovarian = test system: OVCAR-5 ovarian
SK-MEL-28 melanoma = test system: SK-MEL-28 melanoma
COLO 205 colon = test system: COLO 205 colon
MCF7 breast = test system: MCF7 breast
SW-620 colon = test system: SW-620 colon

For CN(C)C/C=C/C(=O)Nc1ccc(C(=O)Nc2cccc(Nc3ncc(Cl)c(-c4c[nH]c5ccccc45)n3)c2)cc1, the GI50 (HCC-2998 colon) was < 10 nM, the TGI (HCC-2998 colon) was 20.6 nM and the GI50 (786-0 renal) was 23.9 nM. The TGI (786-0 renal) was 83.3 nM, the GI50 (LOX IMVI melanoma) was < 10 nM and the TGI (LOX IMVI melanoma) was 28.2 nM. It also gave a GI50 (IGROV1 ovarian) of 12.5 nM, a TGI (IGROV1 ovarian) of 51.9 nM and a GI50 (SF-295 CNS) of 31.4 nM. For the same molecule, the TGI (SF-295 CNS) was 99.4 nM, the GI50 (HL-60(TB) leukemia) was < 10 nM and the TGI (HL-60(TB) leukemia) was < 10 nM. The GI50 (A549 NSCLC) was 31.1 nM, the TGI (A549 NSCLC) was 110 nM and the GI50 (U251 glioblastoma) was < 10 nM. For the same molecule, the TGI (U251 glioblastoma) was 27.4 nM, the GI50 (SNB-19 CNS) was 20.1 nM and the TGI (SNB-19 CNS) was 174 nM. For the same molecule, the GI50 (M14 melanoma) was 14.5 nM, the TGI (M14 melanoma) was 29.5 nM and the GI50 (HT29 colon) was 20 nM. The TGI (HT29 colon) was 47.5 nM, the GI50 (SF-268 CNS) was < 10 nM and the TGI (SF-268 CNS) was 17.4 nM. It also gave a GI50 (T-47D breast) of 14.2 nM, a TGI (T-47D breast) of 73.3 nM and a GI50 (PC-3 prostate) of 20.6 nM. For the same molecule, the TGI (PC-3 prostate) was 54.5 nM, the GI50 (SN12C renal) was 10.3 nM and the TGI (SN12C renal) was 29.4 nM. It also gave a GI50 (MALME-3M melanoma) of 14.7 nM, a TGI (MALME-3M melanoma) of 29.9 nM and a GI50 (RPMI-8226 leukemia) of 13.7 nM. The TGI (RPMI-8226 leukemia) was 26.8 nM, the GI50 (SF-539 CNS) was < 10 nM and the TGI (SF-539 CNS) was 19.5 nM. For the same molecule, the GI50 (A498 renal) was 17.2 nM, the TGI (A498 renal) was 55.9 nM and the GI50 (SK-MEL-5 melanoma) was < 10 nM. The TGI (SK-MEL-5 melanoma) was 20.7 nM, the GI50 (NCI-H226 lung) was 12.4 nM and the TGI (NCI-H226 lung) was 33.6 nM. It also gave a GI50 (KM12 colon) of 17.7 nM, a TGI (KM12 colon) of 41.1 nM and a GI50 (OVCAR-8 ovarian) of 16.5 nM. The TGI (OVCAR-8 ovarian) was 39.8 nM, the GI50 (OVCAR-5 ovarian) was 21.4 nM and the TGI (OVCAR-5 ovarian) was 1200 nM. For the same molecule, the GI50 (SK-MEL-28 melanoma) was < 10 nM, the TGI (SK-MEL-28 melanoma) was 15.2 nM and the GI50 (COLO 205 colon) was < 10 nM. For the same molecule, the TGI (COLO 205 colon) was 13.4 nM, the GI50 (MCF7 breast) was < 10 nM and the TGI (MCF7 breast) was 166 nM. The GI50 (SW-620 colon) was < 10 nM.
